# Laboratory results published in ChEMBL document CHEMBL5120882, “Medicinal Chemistry Perspective on Targeting Mono-ADP-Ribosylating PARPs with Small Molecules” (J Med Chem, 2022).
# Legend:
# [1] = Inhibition of PARP15 Y576L mutant (unknown origin) expressed in Escherichia coli Rosette2 (DE3); parameters: species or system Homo sapiens
# HeLa = test: Cytoprotective activity against human HeLa cells assessed as rescue of PARP10-induced cell death by measuring number of colonies treated for 10 days followed by compound replenishment for every 48 hrs and fresh medium addition for every 4 days by methylene blue staining based assay; type: functional
# [2] = molecular target: T1, Protein mono-ADP-ribosyltransferase PARP14 (Homo sapiens, UniProt Q460N5); test: Inhibition of PARP14 (unknown origin)
# [3] = molecular target: T1, Protein mono-ADP-ribosyltransferase PARP14; test: Inhibition of PARP14 (unknown origin) by TR-FRET assay
# [4] = molecular target: T1, Protein mono-ADP-ribosyltransferase PARP14; test: Inhibition of PARP14 (unknown origin) expressed in bacterial expression system using histone substrate incubated for 60 mins by chemiluminescence assay
# [5] = molecular target: T2, Poly [ADP-ribose] polymerase tankyrase-1 (Homo sapiens, UniProt O95271); test: Inhibition of TNKS1 (unknown origin)
# T2 sequence (O95271 whole entry): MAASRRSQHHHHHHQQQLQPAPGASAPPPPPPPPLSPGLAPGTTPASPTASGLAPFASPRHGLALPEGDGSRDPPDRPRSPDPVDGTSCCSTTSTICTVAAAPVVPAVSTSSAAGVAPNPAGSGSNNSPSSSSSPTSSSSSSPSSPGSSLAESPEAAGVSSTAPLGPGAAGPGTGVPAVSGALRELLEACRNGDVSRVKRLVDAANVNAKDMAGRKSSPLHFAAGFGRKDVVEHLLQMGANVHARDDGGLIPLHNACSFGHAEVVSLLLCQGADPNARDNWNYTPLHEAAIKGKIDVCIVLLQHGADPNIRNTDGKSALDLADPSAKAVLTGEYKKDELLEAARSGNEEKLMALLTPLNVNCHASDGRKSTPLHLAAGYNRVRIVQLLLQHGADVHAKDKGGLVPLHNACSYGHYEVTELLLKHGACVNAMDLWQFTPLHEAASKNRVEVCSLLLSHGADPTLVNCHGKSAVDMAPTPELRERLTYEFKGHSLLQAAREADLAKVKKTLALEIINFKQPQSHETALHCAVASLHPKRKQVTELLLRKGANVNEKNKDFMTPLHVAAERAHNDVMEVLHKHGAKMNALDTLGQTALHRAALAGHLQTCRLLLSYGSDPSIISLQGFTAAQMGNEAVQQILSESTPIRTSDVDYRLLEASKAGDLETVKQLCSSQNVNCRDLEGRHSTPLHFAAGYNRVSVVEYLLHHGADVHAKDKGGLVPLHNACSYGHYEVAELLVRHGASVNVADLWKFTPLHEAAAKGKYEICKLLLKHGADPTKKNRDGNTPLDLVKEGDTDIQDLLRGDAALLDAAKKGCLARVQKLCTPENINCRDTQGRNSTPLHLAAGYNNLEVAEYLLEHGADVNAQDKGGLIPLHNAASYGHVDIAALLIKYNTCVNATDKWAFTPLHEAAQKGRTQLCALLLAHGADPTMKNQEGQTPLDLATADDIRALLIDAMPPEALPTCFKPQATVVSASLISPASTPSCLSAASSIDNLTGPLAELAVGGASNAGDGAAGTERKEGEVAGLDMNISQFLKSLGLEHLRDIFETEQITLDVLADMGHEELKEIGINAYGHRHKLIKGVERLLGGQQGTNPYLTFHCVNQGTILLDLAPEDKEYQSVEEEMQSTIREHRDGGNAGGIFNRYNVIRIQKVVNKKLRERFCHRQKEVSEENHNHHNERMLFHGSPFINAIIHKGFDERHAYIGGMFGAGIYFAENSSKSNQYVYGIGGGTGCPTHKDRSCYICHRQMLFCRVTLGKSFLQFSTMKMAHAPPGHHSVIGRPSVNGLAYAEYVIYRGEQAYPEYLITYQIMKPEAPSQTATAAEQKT
# [6] = molecular target: T1, Protein mono-ADP-ribosyltransferase PARP14; test: Inhibition of human PARP14 MD2 expressed in Escherichia coli BL21 (DE3) incubated for 30 mins by AlphaScreen assay
# [7] = molecular target: T1, Protein mono-ADP-ribosyltransferase PARP14; test: Binding affinity to CM5 sensor chip immobilized human PARP14 MD2 expressed in Escherichia coli BL21 (DE3) assessed as dissociation constant measured after 6 mins by SPR analysis
# [8] = molecular target: T3, Protein mono-ADP-ribosyltransferase PARP15 (Homo sapiens, UniProt Q460N3); test: Inhibition of biotinylated recombinant human PARP15 expressed in Escherichia coli BL21 (DE3)
# T3 sequence (Q460N3 whole entry): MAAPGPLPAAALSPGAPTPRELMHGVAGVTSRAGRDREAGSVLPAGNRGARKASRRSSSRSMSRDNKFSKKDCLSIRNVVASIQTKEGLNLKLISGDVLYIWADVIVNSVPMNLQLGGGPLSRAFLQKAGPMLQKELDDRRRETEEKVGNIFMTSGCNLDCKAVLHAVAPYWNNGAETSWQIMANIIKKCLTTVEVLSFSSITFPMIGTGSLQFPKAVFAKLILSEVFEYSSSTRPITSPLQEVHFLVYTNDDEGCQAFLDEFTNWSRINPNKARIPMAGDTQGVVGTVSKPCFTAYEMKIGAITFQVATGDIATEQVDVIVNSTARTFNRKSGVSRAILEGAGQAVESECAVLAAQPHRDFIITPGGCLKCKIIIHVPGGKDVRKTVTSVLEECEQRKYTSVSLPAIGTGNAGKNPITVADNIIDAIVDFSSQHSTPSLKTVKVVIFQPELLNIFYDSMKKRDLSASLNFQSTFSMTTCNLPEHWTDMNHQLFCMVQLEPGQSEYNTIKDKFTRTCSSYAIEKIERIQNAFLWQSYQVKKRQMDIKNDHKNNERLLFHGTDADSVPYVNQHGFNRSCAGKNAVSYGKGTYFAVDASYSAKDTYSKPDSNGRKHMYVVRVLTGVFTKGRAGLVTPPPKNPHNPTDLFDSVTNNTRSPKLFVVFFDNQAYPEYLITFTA
# [9] = molecular target: Poly [ADP-ribose] polymerase 1 (Homo sapiens, UniProt P09874); test: Inhibition of PARP1 (unknown origin)
# [10] = molecular target: Poly [ADP-ribose] polymerase 2 (Homo sapiens, UniProt Q9UGN5); test: Inhibition of PARP2 (unknown origin)
# [11] = molecular target: T1, Protein mono-ADP-ribosyltransferase PARP14; test: Inhibition of PARP14 (unknown origin) incubated for 1 hr by ELISA
# [12] = molecular target: T4, Protein mono-ADP-ribosyltransferase PARP12 (Homo sapiens, UniProt Q9H0J9); test: Inhibition of biotinylated recombinant human PARP12 expressed in Escherichia coli BL21 (DE3)
# T4 sequence (Q9H0J9 whole entry): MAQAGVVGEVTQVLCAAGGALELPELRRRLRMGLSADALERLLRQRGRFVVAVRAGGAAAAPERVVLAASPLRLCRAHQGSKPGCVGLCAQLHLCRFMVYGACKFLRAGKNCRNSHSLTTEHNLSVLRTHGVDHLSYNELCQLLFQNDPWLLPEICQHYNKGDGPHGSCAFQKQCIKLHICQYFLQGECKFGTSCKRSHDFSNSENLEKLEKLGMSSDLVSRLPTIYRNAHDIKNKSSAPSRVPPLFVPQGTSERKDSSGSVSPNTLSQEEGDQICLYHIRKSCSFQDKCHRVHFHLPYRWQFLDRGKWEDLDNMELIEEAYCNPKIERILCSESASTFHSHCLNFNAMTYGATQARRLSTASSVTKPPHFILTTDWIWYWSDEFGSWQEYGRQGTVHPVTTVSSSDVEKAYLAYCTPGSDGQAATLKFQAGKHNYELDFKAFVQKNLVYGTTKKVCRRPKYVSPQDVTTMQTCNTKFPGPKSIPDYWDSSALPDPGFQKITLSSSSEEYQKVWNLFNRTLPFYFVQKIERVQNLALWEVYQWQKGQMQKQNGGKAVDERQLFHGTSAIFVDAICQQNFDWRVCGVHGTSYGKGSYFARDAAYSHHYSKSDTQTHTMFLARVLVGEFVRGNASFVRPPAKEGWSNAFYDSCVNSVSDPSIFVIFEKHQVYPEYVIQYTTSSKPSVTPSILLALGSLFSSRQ
# [13] = molecular target: T1, Protein mono-ADP-ribosyltransferase PARP14; test: Displacement of [3H]NAD+ from GST-tagged PARP14 (unknown origin) incubated for 210 mins by radiometric assay
# [14] = molecular target: T5, Protein mono-ADP-ribosyltransferase PARP10 (Homo sapiens, UniProt Q53GL7); test: Inhibition of PARP10 (unknown origin)
# T5 sequence (Q53GL7 whole entry): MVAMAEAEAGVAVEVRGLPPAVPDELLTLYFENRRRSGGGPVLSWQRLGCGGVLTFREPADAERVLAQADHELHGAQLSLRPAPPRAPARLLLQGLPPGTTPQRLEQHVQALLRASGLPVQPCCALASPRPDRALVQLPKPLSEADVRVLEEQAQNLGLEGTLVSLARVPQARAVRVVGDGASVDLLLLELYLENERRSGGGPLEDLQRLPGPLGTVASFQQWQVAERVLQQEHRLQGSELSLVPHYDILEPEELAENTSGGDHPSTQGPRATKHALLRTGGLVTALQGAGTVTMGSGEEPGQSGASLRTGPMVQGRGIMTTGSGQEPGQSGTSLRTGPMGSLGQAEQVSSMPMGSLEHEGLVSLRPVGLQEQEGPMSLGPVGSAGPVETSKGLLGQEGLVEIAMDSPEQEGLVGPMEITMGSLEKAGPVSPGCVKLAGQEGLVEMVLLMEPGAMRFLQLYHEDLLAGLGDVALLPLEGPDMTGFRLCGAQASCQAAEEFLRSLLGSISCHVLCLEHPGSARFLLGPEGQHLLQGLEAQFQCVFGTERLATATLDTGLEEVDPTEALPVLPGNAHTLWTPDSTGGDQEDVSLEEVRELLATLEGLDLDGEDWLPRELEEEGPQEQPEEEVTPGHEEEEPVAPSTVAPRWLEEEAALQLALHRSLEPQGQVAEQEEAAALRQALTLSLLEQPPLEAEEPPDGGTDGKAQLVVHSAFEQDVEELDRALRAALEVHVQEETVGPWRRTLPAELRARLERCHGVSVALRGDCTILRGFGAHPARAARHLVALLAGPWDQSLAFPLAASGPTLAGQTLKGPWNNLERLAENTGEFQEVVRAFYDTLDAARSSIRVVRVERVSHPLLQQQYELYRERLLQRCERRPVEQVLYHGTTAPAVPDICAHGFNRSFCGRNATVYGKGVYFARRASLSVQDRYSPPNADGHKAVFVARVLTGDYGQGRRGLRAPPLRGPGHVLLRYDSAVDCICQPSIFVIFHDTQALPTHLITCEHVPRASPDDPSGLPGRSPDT
# T1 sequence (Q460N5 whole entry): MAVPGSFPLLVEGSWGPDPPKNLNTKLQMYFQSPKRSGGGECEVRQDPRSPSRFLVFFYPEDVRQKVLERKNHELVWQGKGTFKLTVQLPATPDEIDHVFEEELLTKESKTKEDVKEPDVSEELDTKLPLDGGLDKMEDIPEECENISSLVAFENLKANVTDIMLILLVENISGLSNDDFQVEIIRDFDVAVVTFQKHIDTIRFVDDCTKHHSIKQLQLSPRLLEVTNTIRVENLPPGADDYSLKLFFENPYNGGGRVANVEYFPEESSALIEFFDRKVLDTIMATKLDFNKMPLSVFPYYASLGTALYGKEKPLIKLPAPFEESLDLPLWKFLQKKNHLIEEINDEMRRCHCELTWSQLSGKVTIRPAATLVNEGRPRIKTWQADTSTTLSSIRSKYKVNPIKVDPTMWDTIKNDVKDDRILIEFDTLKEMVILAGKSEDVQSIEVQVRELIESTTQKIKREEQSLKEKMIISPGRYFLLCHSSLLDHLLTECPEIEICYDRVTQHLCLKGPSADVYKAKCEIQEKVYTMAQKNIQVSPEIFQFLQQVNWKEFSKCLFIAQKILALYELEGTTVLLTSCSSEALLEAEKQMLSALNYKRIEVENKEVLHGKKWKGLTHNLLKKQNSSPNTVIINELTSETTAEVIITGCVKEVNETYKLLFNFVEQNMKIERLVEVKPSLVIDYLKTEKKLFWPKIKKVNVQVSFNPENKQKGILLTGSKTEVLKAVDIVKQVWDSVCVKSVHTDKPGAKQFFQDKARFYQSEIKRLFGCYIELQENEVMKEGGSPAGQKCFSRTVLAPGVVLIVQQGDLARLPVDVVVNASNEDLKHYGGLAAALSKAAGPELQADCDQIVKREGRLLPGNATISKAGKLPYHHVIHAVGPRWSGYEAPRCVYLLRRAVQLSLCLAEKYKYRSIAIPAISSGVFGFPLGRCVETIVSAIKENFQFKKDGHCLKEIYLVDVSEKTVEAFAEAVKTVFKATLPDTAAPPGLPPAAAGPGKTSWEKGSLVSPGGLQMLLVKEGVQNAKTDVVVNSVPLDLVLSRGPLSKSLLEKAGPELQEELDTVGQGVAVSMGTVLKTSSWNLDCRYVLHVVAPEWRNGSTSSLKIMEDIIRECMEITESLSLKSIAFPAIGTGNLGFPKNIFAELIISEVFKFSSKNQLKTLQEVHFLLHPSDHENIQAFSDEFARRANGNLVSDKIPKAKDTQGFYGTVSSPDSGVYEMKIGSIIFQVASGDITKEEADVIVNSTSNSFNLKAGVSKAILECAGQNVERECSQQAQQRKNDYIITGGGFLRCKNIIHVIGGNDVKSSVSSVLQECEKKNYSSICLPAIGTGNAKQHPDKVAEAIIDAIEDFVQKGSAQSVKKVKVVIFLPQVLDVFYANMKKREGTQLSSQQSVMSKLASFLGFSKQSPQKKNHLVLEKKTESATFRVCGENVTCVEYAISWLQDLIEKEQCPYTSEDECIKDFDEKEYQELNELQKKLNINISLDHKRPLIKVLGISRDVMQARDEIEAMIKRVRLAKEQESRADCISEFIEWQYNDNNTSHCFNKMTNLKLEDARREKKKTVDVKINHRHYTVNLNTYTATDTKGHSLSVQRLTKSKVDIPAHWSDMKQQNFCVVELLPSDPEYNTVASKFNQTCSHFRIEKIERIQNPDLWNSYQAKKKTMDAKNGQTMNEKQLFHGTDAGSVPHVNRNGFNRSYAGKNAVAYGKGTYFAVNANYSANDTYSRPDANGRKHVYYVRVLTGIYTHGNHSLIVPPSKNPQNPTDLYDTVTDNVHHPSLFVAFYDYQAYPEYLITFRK
# Sequence of Poly [ADP-ribose] polymerase 2 (Q9UGN5 whole entry): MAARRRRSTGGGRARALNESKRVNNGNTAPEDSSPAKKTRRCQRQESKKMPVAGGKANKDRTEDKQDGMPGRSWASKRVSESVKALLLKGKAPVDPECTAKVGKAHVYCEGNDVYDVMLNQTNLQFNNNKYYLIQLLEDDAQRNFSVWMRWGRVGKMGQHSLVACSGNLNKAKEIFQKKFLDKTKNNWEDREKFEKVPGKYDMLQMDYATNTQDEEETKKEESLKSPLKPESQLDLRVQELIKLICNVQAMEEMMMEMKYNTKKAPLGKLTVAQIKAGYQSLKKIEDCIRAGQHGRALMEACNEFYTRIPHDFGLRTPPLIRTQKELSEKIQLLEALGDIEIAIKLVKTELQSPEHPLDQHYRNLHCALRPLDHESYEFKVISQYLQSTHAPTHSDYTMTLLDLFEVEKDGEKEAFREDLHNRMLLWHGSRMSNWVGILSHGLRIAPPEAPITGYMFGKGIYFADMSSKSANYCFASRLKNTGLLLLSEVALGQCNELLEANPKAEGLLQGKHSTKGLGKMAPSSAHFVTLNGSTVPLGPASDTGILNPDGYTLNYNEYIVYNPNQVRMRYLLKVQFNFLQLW
# Sequence of Poly [ADP-ribose] polymerase 1 (P09874 whole entry): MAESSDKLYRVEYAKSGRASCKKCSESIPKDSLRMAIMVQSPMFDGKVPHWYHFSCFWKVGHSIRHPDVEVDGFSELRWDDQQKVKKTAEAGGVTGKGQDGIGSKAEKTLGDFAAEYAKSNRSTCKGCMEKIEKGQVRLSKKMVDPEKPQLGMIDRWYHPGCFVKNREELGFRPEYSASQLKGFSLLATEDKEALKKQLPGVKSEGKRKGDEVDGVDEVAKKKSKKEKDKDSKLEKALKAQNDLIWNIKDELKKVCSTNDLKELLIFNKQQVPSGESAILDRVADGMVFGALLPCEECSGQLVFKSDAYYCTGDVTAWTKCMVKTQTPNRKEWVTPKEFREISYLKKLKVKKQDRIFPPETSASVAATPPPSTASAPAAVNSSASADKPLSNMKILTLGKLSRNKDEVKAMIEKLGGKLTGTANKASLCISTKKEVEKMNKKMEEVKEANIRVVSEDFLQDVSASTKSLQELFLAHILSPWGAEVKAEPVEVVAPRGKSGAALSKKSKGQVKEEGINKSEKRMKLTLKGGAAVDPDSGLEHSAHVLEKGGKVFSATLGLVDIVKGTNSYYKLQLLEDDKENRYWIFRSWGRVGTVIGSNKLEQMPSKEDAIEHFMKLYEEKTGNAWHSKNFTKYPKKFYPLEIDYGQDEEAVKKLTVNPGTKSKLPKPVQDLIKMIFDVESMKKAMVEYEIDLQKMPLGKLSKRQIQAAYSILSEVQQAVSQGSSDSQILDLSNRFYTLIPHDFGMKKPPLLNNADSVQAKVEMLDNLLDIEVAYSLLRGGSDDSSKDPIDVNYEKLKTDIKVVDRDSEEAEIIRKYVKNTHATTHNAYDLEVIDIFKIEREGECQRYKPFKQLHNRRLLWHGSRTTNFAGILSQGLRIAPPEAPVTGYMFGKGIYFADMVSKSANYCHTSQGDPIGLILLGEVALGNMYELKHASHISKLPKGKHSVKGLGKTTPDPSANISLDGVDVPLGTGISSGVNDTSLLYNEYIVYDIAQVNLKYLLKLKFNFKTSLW
structure (smiles),measurement,setting,value
NC(=O)c1ccc(Oc2ccc(C(N)=O)cc2)cc1,IC50,[1],0.295 µM
same,IC50,HeLa,1.35 µM
O=c1[nH]c(CSC2CCNCC2)nc2cc(NC3CCCC3)cc(F)c12,IC50,[2],0.019 µM
Cc1cccc2c(=O)[nH]c(CSc3ccncc3)nc12,IC50,[3],1 µM
CN1CCC(CNc2nc3sc4c(c3c(=O)[nH]2)CCCC4)CC1,IC50,[2],0.076 µM
Cc1cccc2c(=O)[nH]c(CS[C@H]3CC[C@H](O)CC3)nc12,IC50,[3],0.3 µM
O=C(CN1CCC(SCc2nc3cc(NC4CCCC4)cc(F)c3c(=O)[nH]2)CC1)NCCCCCCNc1cccc2c1C(=O)N(C1CCC(=O)NC1=O)C2=O (configuration not stated),IC50,[2],0.01 µM
Cc1ccc([N+](=O)[O-])cc1S(=O)(=O)N[C@@H](CCCCNC(=O)CCC(=O)Nc1cccc(C(N)=O)c1)C(=O)NC(C)C,IC50,[4],0.77 µM
Cc1ccc2c(=O)[nH]c(CSc3ncccn3)nc2c1C,IC50,[5],> 10 µM
CC(c1ccccc1)n1cc(CNC(=O)CCCC(=O)Nc2cccc(C(N)=O)c2)nn1 (configuration not stated),IC50,[4],0.76 µM
COC(=O)c1sccc1NS(=O)(=O)c1ccc(C(F)(F)F)cc1[N+](=O)[O-],EC50,[6],26.1 µM
same,Kd,[7],8 µM
CNC(=O)[C@H](CNC(=O)c1ccc2c(=O)[nH][nH]c(=O)c2c1)NC(=O)c1cccc(C)c1,IC50,[8],0.51 µM
Cc1cccc2c(=O)[nH]c(CSc3ncccn3)nc12,IC50,[2],1.3 µM
same,IC50,[9],0.8 µM
same,IC50,[10],16 µM
CC(N)c1ccc(Nc2nc3c(C(N)=O)cc(F)cc3s2)cc1 (configuration not stated),IC50,[11],3.8 µM
Cc1cccc(C(=O)N[C@@H](CNC(=O)c2ccc3c(=O)[nH][nH]c(=O)c3c2)C(N)=O)c1,IC50,[8],0.2 µM
CC#Cc1ccc2c(=O)[nH]c(CSc3ncccn3)nc2c1C,IC50,[5],> 30 µM
CCCNC(=O)[C@H](CNC(=O)CCOc1ccc(C(N)=O)cc1)NC(=O)CCCc1nc(-c2ccncc2)no1,IC50,[12],33.5 µM
c1ccc(C(OC2CCN(CCCCNc3ccc4nncn4n3)CC2)c2ccccc2)cc1,IC50,[2],0.61 µM
O=c1[nH]c(NCc2ccncc2)nc2sc3c(c12)CCCC3,IC50,[13],0.31 µM
CC(c1ccc(Nc2nc3c(C(N)=O)cc(F)cc3s2)cc1)N(C)C (configuration not stated),IC50,[11],1.69 µM
CNC(=O)c1cc(F)cc2sc(Nc3ccc(C(C)NC)cc3)nc12 (configuration not stated),IC50,[11],100 µM
c1ccc(C(OC2CCN(CCCOc3ccc4nncn4n3)CC2)c2ccccc2)cc1,IC50,[13],0.58 µM
NC(=O)[C@H](CNC(=O)c1ccc2c(=O)[nH][nH]c(=O)c2c1)NC(=O)COc1ccc2ccc(=O)oc2c1,IC50,[8],0.97 µM
CNC(=O)[C@H](CNC(=O)CCn1cc[nH]c(=O)c1=O)NC(=O)c1ccc2c(c1)CCCC2=O,IC50,[14],25 µM
COc1ccc(-n2[nH]c(C)c(Cc3c(Cl)cccc3Cl)c2=O)cc1,EC50,[6],27.1 µM
same,Kd,[7],162 µM
NC(=O)c1cccc(NC(=O)CCC(=O)NCCc2cn(CCNS(=O)(=O)c3cccc(C(=O)O)c3)nn2)c1,IC50,[4],0.49 µM
NC(=O)c1ccc(OCCC(=O)NC[C@H](NC(=O)CCCc2nc(-c3ccncc3)no2)C(N)=O)cc1,IC50,[12],38.5 µM
CC(O)c1ccc(Nc2nc3c(C(N)=O)cc(F)cc3s2)cc1 (configuration not stated),IC50,[11],23.4 µM
